From PubChem BioAssay (NCI)
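Interpolation was linear, between the two tested concentrations surrounding the appropriate level; five concentrations were tested over 48 hours in 96-well plates. Abbreviation: GI50, concentration required for 50% inhibition of growth. TGI: concentration producing complete growth inhibition.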

Key:
Assay in all cases: DTP human tumour cell line panel, 48 h
[1] = test system: A549 NSCLC
[2] = test system: ACHN renal
[3] = test system: CAKI-1 renal
[4] = test system: HCT-15 colon
[5] = test system: HOP-92 NSCLC
[6] = test system: KM12 colon
[7] = test system: M14 melanoma
[8] = test system: RPMI-8226 leukemia
[9] = test system: SK-OV-3 ovarian
[10] = test system: UACC-257 melanoma

Row | Compound | TGI [1] [µM] | TGI [2] [µM] | TGI [3] [µM] | TGI [4] [µM] | TGI [5] [µM] | TGI [6] [µM] | TGI [7] [µM] | TGI [8] [µM] | TGI [9] [µM] | TGI [10] [µM] | GI50 [1] [µM] | GI50 [2] [µM] | GI50 [3] [µM] | GI50 [4] [µM] | GI50 [5] [µM] | GI50 [6] [µM] | GI50 [7] [µM] | GI50 [8] [µM] | GI50 [9] [µM] | GI50 [10] [µM]
1 | O=C1C(=O)C(Br)(Br)C(Br)=C1Br | > 100 | 29.6 | 34.9 | 41.9 | 36.7 | 28.6 | 32.4 | 99.5 | > 100 | 43.6 | – | – | – | – | – | – | – | – | – | –
2 | CC(=O)N=c1ccc2nc3c(cc(N)c4ccccc43)oc-2c1 | 3.42 | 2.62 | 3.17 | 2.5 | 4.94 | 2.87 | 3.86 | 1.76 | 4.95 | 1.91 | 1.08 | 1.34 | 1.55 | 0.935 | 1.4 | 1.44 | 1.58 | 0.302 | 1.92 | 0.467
3 | CCN(CC)C(=O)COc1ccc(Br)cc1Br | > 100 | > 100 | > 100 | > 100 | > 100 | > 100 | > 100 | > 100 | > 100 | > 100 | – | – | – | – | – | – | – | – | – | –
4 | CCCN(CCC)c1ccc(/C=N/NC(=O)c2cccnc2)c(Cl)c1 | 36.1 | > 88.1 | 58 | 34.4 | 25.2 | 25.7 | 23.2 | 69.9 | 45.5 | 2.96 | 6.84 | 23.3 | 12.1 | 7.87 | 8.95 | 7.19 | 8.71 | 15.7 | 13.9 | 0.816
5 | Cc1ccc(S(=O)(=O)N2CCc3ccc(O)c4c3C2Cc2cc(Cl)ccc2-4)cc1 (stereo not given) | 5.44 | 23.5 | 16.9 | 6.97 | 3.62 | 4.21 | 2.96 | 2.6 | 3.75 | 7.08 | 1.16 | 2.06 | 1.3 | 1.35 | 0.354 | 1.18 | 0.88 | 0.875 | 1.11 | 1.45
6 | O=C(COc1ccccc1)NS(=O)(=O)c1ccccc1 | > 100 | > 100 | > 100 | > 100 | > 100 | > 100 | > 100 | > 100 | > 100 | > 100 | – | – | – | – | – | – | – | – | – | –
7 | O=c1cnn2c(n1)sc1ccc3ccccc3c12 | > 100 | > 100 | > 100 | > 100 | > 100 | > 100 | > 100 | > 100 | > 100 | > 100 | – | – | – | – | – | – | – | – | – | –
8 | C[C@@]12CCC(=O)C=C1CC[C@H]1C2=CC[C@]2(C)C1CC[C@@]2(C)O (stereo not given in full) | > 100 | > 100 | > 100 | > 100 | > 100 | > 100 | > 100 | > 100 | > 100 | > 100 | – | – | – | – | – | – | – | – | – | –
